Data: patent US9850300B2, “Compositions and methods relating to inhibiting cancer cell growth and/or proliferation” (The Regents of the University of Michigan, priority 2013, dated 2017)
“Also recorded” adds a separate entry of the source.

Tests used:
Assay type in all cases: cell-based
[1] = test system: SKOV3 cells; assay: EGFL6-mediated cell proliferation, RGE mutation or Echistatin pretreatment; conditions: for proliferative effect on cancer cells: RGD-to-RGE mutated EGFL6 vs EGFL6, SKOV3
Description: To determine if EGFL6 signaling on cancer cells is via integrin bind, an EGFL6 protein with an […] mutation (EGFL6^RGE) was generated. […] Similarly, pretreatment of SKOV3 cells with the integrin β1/β3 inhibitor Echistatin blocked both EGFL6-mediated cancer cell proliferation and the decrease in ALDH^+ percentage (FIG. 4B).
(§1) SKOV3, A2008, and A2780 were maintained in RPMI-1640, supplemented with 10% FBS with 1% Penicillin/Streptomycin, and cultured in humidified atmosphere of 5% CO2 at 37° C. For all in vitro cell culture experiments, isolated cells were allow to recover overnight following FACS, prior to treatment. Infantile Hemangioma Stem cells were maintained in EBM-2 medium with growth factor supplement cocktails in culture plates coated with fibronectin. For Echistatin and EGFL6 treatment, cells were pretreated with Echistatin (Sigma, 100 nM) for 24 hours prior to EGFL6 treatment. All transfections were performed using FuGene6 reagent (Promega) per company protocol.

[2] = test system: phosphorylation of SHP2, ERK, FAK and SRC in SKOV3 cells; assay: Western blot of EGFL6 mediated signal activation; conditions: for p-SHP2 levels: treatment of ALDH+ SKOV3 cells
Description: Lastly, EGFL6 mediated signal activation was evaluated. Integrin signaling has been reported to induce the […] of FAK, SRC and SHP2 among others. […] Phosphorylation of all of these proteins could be blocked with Echistatin.
Cellular signaling changes associated with EGFL6 was next examined. […] EGFL6 treatment was associated with increased p-SHP2 levels specifically in ALDH^+ cells (FIG. 4Ei). […] SHP2 phosphorylation could be blocked with Echistatin (FIG. 4Eiii) or an EGFL6-blocking antibody. SHP2 phosphorylation was associated with increased p-ERK levels (4Ei-iii).
as §1
EGFL6 monoclonal antibody producing hybridoma cells were maintained in RPMI medium supplemented with 10% FBS. For antibody purification, the cells were cultured in reduced FBS (5%). Culture supernatant was collected and cell debris was removed by centrifugation. EGFL6 antibody was pulled down using Protein G Agarose heeds, Fast Flow (Millipore), washed and eluded with 50 mM glycine PH.2.7. Antibody solution was immediately neutralized to PH 7.2-7.4 with Tris (Ph 9.0, final concentration 25 mM). NaCl was added to final concentration of 150 mM. EGFL6 antibody was applied at 5 μg/ml for in vitro cell treatment and 50 μg/mouse for in vivo treatment.

[3] = test system: ALDH+ CSCs in SKOV3 cells; assay: ALDH+ cell percentage and number (ALDEFLUOR FACS); conditions: Echistatin 100 nM pretreatment 24 hours or EGFL6 antibody 5 μg/ml, then EGFL6
Text: It has been shown that aldehyde dehydrogenase enzymatic activity (ALDH) is an excellent marker of ovarian CSCs in SKOV3 cells and primary patient samples (see, e.g., Silva, I. A., et al. Cancer Res (2011); Landen, C. N., Jr., et al. Mol Cancer Ther 9, 3186-3199 (2010); Steg, A. D., et al. Clin Cancer Res 18, 869-881 (2012); Kryczek, I., et al. Int J Cancer 130, 29-39 (2012); Deng, S., et al. PLoS ONE 5, e10277 (2010)). The impact of EGFL6 treatment on the percentage of ALDH^+ CSCs in vitro was next assessed. […] However, given the increase in total cell numbers, the absolute ALDH^+ CSC number remained unchanged (FIG. 3Aiii). […] Human ovarian cancer ascites cells were also treated with EGFL6 in a tumor sphere assay. Once again, treatment with EGLF6 was associated with a reduction in ALDH^+ cell percentages in tumor spheres (FIG. 3B).
as §1
FACS assay was performed as previously described (see, e.g., Silva, I. A., et al. Cancer Res (2011)). Briefly, SKOV3 cells or primary ovarian tumor/ascetics cells were stained for ALDH using ALDEFLUOR kit per company protocol (Stem Cell Technologies). DAPI staining was used to exclude non-viable cells. For FACS cell sorting, equal number of ALDH and ALDH^(−) cells were collected for subsequent experiments.
EGFL6 monoclonal antibody producing hybridoma cells were maintained in RPMI medium supplemented with 10% FBS. For antibody purification, the cells were cultured in reduced FBS (5%). […]

Molecule | blockade of EGFL6-mediated cancer cell proliferation ([1]; Echistatin pretreatment, SKOV3) | blockade of EGFL6-induced phosphorylation of SHP2, FAK and SRC ([2]; Echistatin pretreatment) | blockade of EGFL6-mediated ERK phosphorylation ([2]; with EGFL6 treatment) | blockade of EGFL6-mediated SHP2 phosphorylation ([2]; with EGFL6 treatment) | blockade of EGFL6-mediated reduction in ALDH+ cell percentages [3] | proliferative effect on cancer cells [1] | proliferative effect on cancer cells ([1]; listed as EGFL6-RGE mutant) | p-SHP2 levels [2] | p-SHP2 levels ([2]; listed as EGFL6-RGE mutant) | p-ERK levels ([2]; treatment of ALDH+ and ALDH(−) cells)
Echistatin [reference compound] | blocked | blocked | suppressed | blocked; also recorded: suppressed | inhibited the effect of EGFL6; also recorded: blocked; also recorded: inhibits | – | – | – | – | –
EGFL6^RGE: EGFL6 protein with an RGD-to-RGE mutation of the integrin binding motif (protein) NAASARHHGLLASARQPGVCHYGTKLACCYGWRRNSKGVCEATCEPGCKFGECVGPNKCRCFPGYTGKTCSQDVNECGMKPRPCQHRCVNTHGSYKCFCLSGHMLMPDATCVNSRTCAMINCQYSCEDTEEGPQCLCPSSGLRLAPNGRDCLDIDECASGKVICPYNRRCVNTFGSYYCKCHIGFELQYISGRYDCIDINECTMDSHTCSHHANCFNTQGSFKCKCKQGYKGNGLRCSAIPENSVKEVLRAPGTIKDRIKKLLAHKNSMKKKAKIKNVTPEPTRTPTPKVNLQPFNYEEIVSRGGNSHGGKKGNEEKMKEGLEDEKREEKALKNDIEERSLRGEVFFPKVNEAGEFGLILVQRKALTSKLEHKDLNISVDCSFNHGICDWKQDREDDFDWNPADRDNAIGFYMAVPALAGHKKDIGRLKLLLPDLQPQSNFCLLFDYRLAGDKVGKLRVFVKNSNNALAWEKTTSEDEKWKTGKIQLYQGTDATKSIIFEAERGKGKTGEIAVDGVLLVSGLCPDSLLSVDD | – | – | – | – | – | eliminated the proliferative effects | suppressed | did not increase | does not increase | does not increase
